# Earlier results, collected in paper PMC3964610 (Methods in molecular biology (Clifton, N.J.), 2012).
# Conditions: I.P. 10 mg/kg, male Swiss Albino mice, plasma; ref [17]
smiles,measurement,value
"CCC(=O)N1CCN(c2ccc(-n3c(=O)ccc4cnc5ccc(-c6cnc7ccccc7c6)cc5c43)cc2C(F)(F)F)CC1 [Torin1, 1-(4-(4-propionylpiperazin-1-yl)-3-(trifluoromethyl)phenyl)-9-(quinolin-3-yl)benzo[h][1,6]naphthyridin-2(1H)-one]",AUC,5718 ng·h/mL
same,Cmax,5121 ng/mL
same,Tmax,4.8 min
